Measured values reported in patent US7176313B2, “Anti acid-fast bacterial agent containing pyridonecarboxylic acids as active ingredient” (Daiichi Pharmaceutical Co., Ltd., priority 2000, dated 2007).
Values after ≈ are worked out from the molar mass of the structure shown.

System: RFP-resistant M. tuberculosis
Test: microbe, parasite or virus in culture
Format: cell-based, Mycobacterium tuberculosis
[1] = RFP-resistant M. tuberculosis No. 44, Table 7
[2] = RFP-resistant M. tuberculosis No. 50, Table 7
[3] = Mycobacterium tuberculosis, RFP-resistant M. tuberculosis No. 44, Table 7
[4] = Mycobacterium tuberculosis, RFP-resistant M. tuberculosis No. 45, Table 7
[5] = Mycobacterium tuberculosis, RFP-resistant M. tuberculosis No. 47, Table 7
[6] = Mycobacterium tuberculosis, RFP-resistant M. tuberculosis No. 50, Table 7
[7] = Mycobacterium tuberculosis, RFP-resistant M. tuberculosis No. 56, Table 7
[8] = Mycobacterium tuberculosis, RFP-resistant M. tuberculosis No. 71, Table 7
[9] = Mycobacterium tuberculosis, RFP-resistant M. tuberculosis No. 97, Table 7
[10] = Mycobacterium tuberculosis, RFP-resistant M. tuberculosis No. 44, Table 8 (series 2)
[11] = Mycobacterium tuberculosis, RFP-resistant M. tuberculosis No. 45, Table 8 (series 2)
[12] = Mycobacterium tuberculosis, RFP-resistant M. tuberculosis No. 50, Table 8 (series 2)
[13] = Mycobacterium tuberculosis, RFP-resistant M. tuberculosis No. 51, Table 8 (series 2)
[14] = Mycobacterium tuberculosis, RFP-resistant M. tuberculosis No. 56, Table 8 (series 2)
[15] = Mycobacterium tuberculosis, RFP-resistant M. tuberculosis No. 71, Table 8 (series 2)
[16] = Mycobacterium tuberculosis, RFP-resistant M. tuberculosis No. 97, Table 8 (series 2)
[17] = RFP-resistant M. tuberculosis No. 44, Table 8 (series 2)
[18] = RFP-resistant M. tuberculosis No. 45, Table 8 (series 2)
[19] = RFP-resistant M. tuberculosis No. 50, Table 8 (series 2)
[20] = RFP-resistant M. tuberculosis No. 51, Table 8 (series 2)
[21] = RFP-resistant M. tuberculosis No. 56, Table 8 (series 2)
[22] = RFP-resistant M. tuberculosis No. 71, Table 8 (series 2)
[23] = RFP-resistant M. tuberculosis No. 97, Table 8 (series 2)

Row | SMILES | MIC [10] | MIC [11] | MIC [12] | MIC [13] | MIC [14] | MIC [15] | MIC [16] | also measured
1 | C[C@H]1COc2c(N3CC(N)C4(CC4)C3)c(F)cc3c(=O)c(C(=O)O)cn1c23 (stereo partly drawn) [Compd. 14] | – | – | – | – | – | – | – | MIC [1]: 0.78 µg/mL (≈ 2.09 µM); MIC [2]: 0.39 µg/mL (≈ 1.04 µM)
2 | COc1c(N2CCN(C)CC2)c(F)cc2c(=O)c(C(=O)O)cn([C@@H]3C[C@@H]3F)c12 [Compd. 15, 6-Fluoro-1-[2-(S)-fluoro-1-(R)-cyclopropyl]-1,4-dihydro-8-methoxy-7-(4-methylpiperazin-1-yl)-4-oxoquinoline-3-carboxylic acid] | – | – | – | – | – | – | – | MIC [3]: 0.2 µg/mL (≈ 0.508 µM); MIC [4]: 1.56 µg/mL (≈ 3.97 µM); MIC [5]: 0.39 µg/mL (≈ 0.991 µM); MIC [6]: 0.2 µg/mL (≈ 0.508 µM); MIC [7]: 6.25 µg/mL (≈ 15.9 µM); MIC [8]: 0.39 µg/mL (≈ 0.991 µM); MIC [9]: 1.56 µg/mL (≈ 3.97 µM)
3 | COc1c(N2C[C@@H](C)N[C@@H](C)C2)c(F)cc2c(=O)c(C(=O)O)cn([C@@H]3C[C@@H]3F)c12 [Compd. 16, 7-(3,5-cis-Dimethylpiperazin-1-yl)-6-fluoro-1-[2-(S)-fluoro-1-(R)-cyclopropyl]-1,4-dihydro-8-methoxy-4-oxoquinoline-3-carboxylic acid] | 0.25 µg/mL (≈ 0.614 µM) | 4 µg/mL (≈ 9.82 µM) | 0.12 µg/mL (≈ 0.295 µM) | 0.5 µg/mL (≈ 1.23 µM) | 64 µg/mL (≈ 157 µM) | 0.5 µg/mL (≈ 1.23 µM) | 1 µg/mL (≈ 2.45 µM) | MIC (Mycobacterium tuberculosis, RFP-resistant M. tuberculosis No. 47, Table 8 (series 2)): 0.5 µg/mL (≈ 1.23 µM)
4 | COc1c(N2CCNC(CF)C2)c(F)cc2c(=O)c(C(=O)O)cn([C@@H]3C[C@@H]3F)c12 (stereo partly drawn) [Compd. 19, 6-Fluoro-1-[(1R,2S)-2-fluorocyclopropyl]-7-(3-fluoromethylpiperazin-1-yl)-1,4-dihydro-8-methoxy-4-oxoquinoline-3-carboxylic acid] | 0.39 µg/mL (≈ 0.948 µM) | 3.13 µg/mL (≈ 7.61 µM) | 0.2 µg/mL (≈ 0.486 µM) | 0.78 µg/mL (≈ 1.9 µM) | 50 µg/mL (≈ 122 µM) | 1.56 µg/mL (≈ 3.79 µM) | 1.56 µg/mL (≈ 3.79 µM) | –
5 | COc1c(N2CCNC(CF)(CF)C2)c(F)cc2c(=O)c(C(=O)O)cn([C@@H]3C[C@@H]3F)c12 [Compd. 20, 6-Fluoro-1-[(1R,2S)-2-fluorocyclopropyl]-7-(3,3′-difluoromethylpiperazin-1-yl)-1,4-dihydro-8-methoxy-4-oxoquinoline-3-carboxylic acid] | 0.39 µg/mL (≈ 0.88 µM) | 6.25 µg/mL (≈ 14.1 µM) | 0.39 µg/mL (≈ 0.88 µM) | 0.78 µg/mL (≈ 1.76 µM) | 50 µg/mL (≈ 113 µM) | 1.56 µg/mL (≈ 3.52 µM) | 1.56 µg/mL (≈ 3.52 µM) | –
6 | COCC1CN(c2c(F)cc3c(=O)c(C(=O)O)cn([C@@H]4C[C@@H]4F)c3c2OC)CCN1 (stereo partly drawn) [Compd. 21, 6-Fluoro-1-[(1R,2S)-2-fluorocyclopropyl]-1,4-dihydro-8-methoxy-7-(3-methoxymethylpiperazin-1-yl)-4-oxoquinoline-3-carboxylic acid] | 0.39 µg/mL (≈ 0.921 µM) | 3.13 µg/mL (≈ 7.39 µM) | 0.39 µg/mL (≈ 0.921 µM) | 0.78 µg/mL (≈ 1.84 µM) | 25 µg/mL (≈ 59 µM) | 1.56 µg/mL (≈ 3.68 µM) | 1.56 µg/mL (≈ 3.68 µM) | –
7 | COc1c(N2CCNC3(CC3)C2)c(F)cc2c(=O)c(C(=O)O)cn([C@@H]3C[C@@H]3F)c12 [Compd. 22, 7-{4,7-Diazaspiro[2.5]octan-7-yl}-6-fluoro-1-[(1R,2S)-2-fluorocyclopropyl]-1,4-dihydro-8-methoxy-4-oxoquinoline-3-carboxylic acid] | 0.78 µg/mL (≈ 1.92 µM) | 25 µg/mL (≈ 61.7 µM) | 0.78 µg/mL (≈ 1.92 µM) | 1.56 µg/mL (≈ 3.85 µM) | 100 µg/mL (≈ 247 µM) | 3.13 µg/mL (≈ 7.72 µM) | 6.25 µg/mL (≈ 15.4 µM) | –
8 | COc1c(C2CNC3(CCC3)CN2)c(F)cc2c(=O)c(C(=O)O)cn([C@@H]3C[C@@H]3F)c12 (stereo partly drawn) [Compd. 23, 7-{5,8-Diazaspiro[3.5]nonan-7-yl}-6-fluoro-1-[(1R,2S)-2-fluorocyclopropyl]-1,4-dihydro-8-methoxy-4-oxoquinoline-3-carboxylic acid] | 1.56 µg/mL (≈ 3.72 µM) | 25 µg/mL (≈ 59.6 µM) | 1.56 µg/mL (≈ 3.72 µM) | 6.25 µg/mL (≈ 14.9 µM) | 100 µg/mL (≈ 238 µM) | 12.5 µg/mL (≈ 29.8 µM) | 12.5 µg/mL (≈ 29.8 µM) | –
9 | COc1c(N2CCNC(C3CC3)C2)c(F)cc2c(=O)c(C(=O)O)cn([C@@H]3C[C@@H]3F)c12 (stereo partly drawn) [Compd. 24, 7-(3-Cyclopropylpiperazin-1-yl)-6-fluoro-1-[(1R,2S)-2-fluorocyclopropyl]-1,4-dihydro-8-methoxy-4-oxoquinoline-3-carboxylic acid] | 0.78 µg/mL (≈ 1.86 µM) | 12.5 µg/mL (≈ 29.8 µM) | 0.39 µg/mL (≈ 0.93 µM) | 1.56 µg/mL (≈ 3.72 µM) | 50 µg/mL (≈ 119 µM) | 3.13 µg/mL (≈ 7.46 µM) | 3.13 µg/mL (≈ 7.46 µM) | –
10 | COc1c(N2CCN[C@@H](c3ccccc3)C2)c(F)cc2c(=O)c(C(=O)O)cn([C@@H]3C[C@@H]3F)c12.Cl [Compd. 26] | – | – | – | – | – | – | – | MIC [17]: 0.1 µg/mL; MIC [18]: 1.56 µg/mL; MIC [19]: 0.1 µg/mL; MIC [20]: 0.2 µg/mL; MIC [21]: 12.5 µg/mL; MIC [22]: 0.78 µg/mL; MIC [23]: 0.78 µg/mL
11 | C[C@H]1COc2c(N3CCN[C@@H](c4ccccc4)C3)c(F)cc3c(=O)c(C(=O)O)cn1c23 [Compd. 27, 9-Fluoro-2,3-dihydro-3-(S)-methyl-7-oxo-10-[3-(S)-phenyl-1-piperazinyl]-7H-pyrido[1.2.3-de][1,4]benzoxazine-6-carboxylic acid] | – | – | – | – | – | – | – | MIC [17]: 0.1 µg/mL (≈ 0.236 µM); MIC [18]: 1.56 µg/mL (≈ 3.68 µM); MIC [19]: 0.1 µg/mL (≈ 0.236 µM); MIC [20]: 0.2 µg/mL (≈ 0.472 µM); MIC [21]: 6.25 µg/mL (≈ 14.8 µM); MIC [22]: 0.39 µg/mL (≈ 0.921 µM); MIC [23]: 0.78 µg/mL (≈ 1.84 µM)
12 | COc1c(N2CCN3CCC2C3)c(F)cc2c(=O)c(C(=O)O)cn([C@@H]3C[C@@H]3F)c12 (stereo partly drawn) [Compd. 28, 7-{1,4-Diazabicyclo[3.2.1]octan-4-yl}-6-fluoro-1-[(1R,2S)-2-fluorocyclopropyl]-1,4-dihydro-8-methoxy-4-oxoquinoline-3-carboxylic acid] | 0.2 µg/mL (≈ 0.493 µM) | 3.13 µg/mL (≈ 7.72 µM) | 0.2 µg/mL (≈ 0.493 µM) | 0.78 µg/mL (≈ 1.92 µM) | 12.5 µg/mL (≈ 30.8 µM) | 1.56 µg/mL (≈ 3.85 µM) | 1.56 µg/mL (≈ 3.85 µM) | –
13 | CC1COc2c(N3CCN(C)CC3)c(F)cc3c(=O)c(C(=O)O)cn1c23 (stereo not drawn) [OFLX, OFLOXAIN, reference compound] | – | – | – | – | – | – | – | MIC [1]: 1.56 µg/mL (≈ 4.32 µM); MIC [17]: 2.0 µg/mL (≈ 5.53 µM); MIC (RFP-resistant M. tuberculosis No. 45, Table 7): 25 µg/mL (≈ 69.2 µM); MIC [18]: 3.20 µg/mL (≈ 8.86 µM); MIC (RFP-resistant M. tuberculosis No. 47, Table 8 (series 2)): 8.0 µg/mL (≈ 22.1 µM); MIC [2]: 0.78 µg/mL (≈ 2.16 µM); MIC [19]: 1.0 µg/mL (≈ 2.77 µM); MIC [20]: 4.0 µg/mL (≈ 11.1 µM); MIC [21]: 16 µg/mL (≈ 44.3 µM); MIC [22]: 4.0 µg/mL (≈ 11.1 µM); MIC [23]: 16 µg/mL (≈ 44.3 µM)
14 | CO[C@H]1/C=C/O[C@@]2(C)Oc3c(C)c(O)c4c(O)c(c(/C=N/N5CCN(C)CC5)c(O)c4c3C2=O)NC(=O)/C(C)=C\C=C\[C@H](C)[C@H](O)[C@@H](C)[C@@H](O)[C@@H](C)[C@H](OC(C)=O)[C@@H]1C [RFP, rifampicin, reference compound] | – | – | – | – | – | – | – | MIC [3]: > 100 µg/mL; MIC [4]: > 100 µg/mL; MIC [5]: > 100 µg/mL; MIC [6]: > 100 µg/mL; MIC (Mycobacterium tuberculosis, RFP-resistant M. tuberculosis No. 51, Table 7): > 100 µg/mL; MIC [7]: > 100 µg/mL; MIC [8]: > 100 µg/mL; MIC [9]: > 100 µg/mL
